Reference: patent publication US7365050B2, “Methods for modulating a drug-related effect or behavior” (The Regents of the University of California, priority 2003, dated 2008)
Read-outs that look alike come from different tables or passages of the source.

Assays:
[1] = system: Cav2.2 null mice and littermates; settings: alcohol vapor 3 days, 16 hours per day; Cav2.2 null vs littermates
Protocol: Handling-induced convulsions (HIC) were measured at various intervals over the next 48 hours.

[2] = system: Cav2.2 null mice and wild-type littermates
Protocol: The conditioned taste aversion study was carried out according to established protocols ([…] and Boyce, 2002) (Chester et al., 2003). Animals were singly housed and acclimatized to limited water access by allowing them access to water for decreasing periods of time (10, 8, 6 and 4 h per day on subsequent days) followed by 2-h daily access for one week. Following acclimatization, they were placed on the conditioning schedule consisting of 1-h access (13:00 to 14:00h) to the conditioned stimulus (CS, a solution of 1.2% (w/v) saline), followed immediately by a saline (0.9% w/v) injection. […] The following day they were allowed two hours of access to drinking water (13:00 to 15:00). This 2-d procedure constituted a single trial and was repeated 7 times to establish baseline consumption levels of 1.2% NaCl. […] Data were compared by two-way ANOVA with factors for injection and genotype.

[3] = system: Cav2.2 null mice and wild-type mice
Protocol: See Example 2. Mice were injected intraperitoneally with saline and placed in the central, access chamber of a three-chambered apparatus. The door to a second chamber (saline-paired chamber), off the central chamber, was then opened to allow mice access to the second chamber, into which the mice entered. The door was then closed and the mice remained in the second chamber for 5 min before being removed and returned to the home cage. On the following day, the procedure was repeated, except that the mice were given an intraperitoneal injection of ethanol (at the doses indicated in FIG. 2) and allowed to enter, by the same procedure as for the saline-paired side, a third chamber (drug-paired chamber), instead of the saline-paired chamber. The ethanol and saline-paired chambers differed in floor texture and wall color. Drug-paired and saline-paired chambers were assigned randomly, i.e., some mice received ethanol in the same type of chamber in which other mice received saline. This process, saline one day and ethanol the next, was then repeated three times further, resulting in a total of four saline/drug-chamber pairings. On the day immediately following the completion of this 8-day training period, the mice were placed into the central chamber and allowed free access to all three chambers for a total of 30 minutes. Time spent in each of the three chambers was analyzed for each genotype by paired two-tailed t-tests with Bonferroni correction for multiple comparisons. […] To control for a baseline preference for a particular chamber type, all mice received a 30-min test in the chambers prior to training.
Mice were trained in a conditioned place preference (CPP) apparatus (Med Associates, St. Albans, Vt.) that consisted of white and black chambers with different floor textures (black side with rod floor vs. white side with grid floor) that were separated by a central gray access compartment. To measure baseline preference for the test chambers, mice were allowed to roam freely in the entire apparatus for 30 min during the first day of the test. […] The ethanol-paired chamber was assigned randomly across subjects. For conditioning, mice were treated with ethanol (1.2, 2.0, or 2.8 grams/kg v/v in 0.9% saline) and immediately placed in one side for 5 min. On the next day, they were injected with an equivalent volume of saline and placed in the other side. This sequence was repeated four times for a total of 4 days ethanol and 4 days saline, with two rest days halfway through training. On the test day immediately following the final training day, mice were allowed free access to all 3 compartments for 30 min. CPP was assessed by comparing the time spent in the drug-paired chamber on the test day with the time spent in the saline-paired chamber and the central chamber on the test day by paired two-tailed t-tests with Bonferroni correction for multiple comparisons. The mice were considered to have developed CPP for ethanol if they spent more time in the ethanol-paired chamber compared with the other two chambers on the test day.

[4] = 4 g/kg ethanol i.p., Cav2.2 null vs wild-type
[5] = system: Cav2.2 null mice and wild-type littermates; settings: solutions containing 6% or 10% ethanol
[6] = system: Cav2.2 null mice and wild-type littermates; remark: listed apart in the source
Protocol: Both groups of mice were injected intraperitoneally with ethanol (3.6 g/kg in 0.9% w/v saline) and then assessed for loss of the righting reflex (LORR). Loss of the righting reflex was defined as a mouse being unable to right itself 3 times within 30 sec. Upon losing the righting reflex, mice were placed on their backs and the time taken for them to regain the righting reflex was measured. A mouse was defined as having regained the righting reflex when it was able to right itself 3 times within 30 sec. A blood sample was taken from the tail of each mouse when it regained the righting reflex in order to determine blood ethanol concentration. Blood was centrifuged at 10,000 g and serum blood alcohol concentration determined using an Analox AM-1 analyser (Analox Instruments, Luneburg Mass.). We determined the threshold concentration of ethanol required to induce LORR using the “up-and-down” method (Dixon, 1965; Findlay et al., 2002). […] If the first mouse lost the righting reflex, then the next mouse was given a lower ethanol dose. […] The log dose interval was 0.0138, corresponding to approximately a 0.1 g/kg difference between doses. The ED50 value was determined as described (Findlay et al., 2002), with 95% confidence intervals determined by the following equation: 95% CI=dosing increment×square root of (2/n)×1.96, where n=the last n trials (6) and 1.96 reflects the 0.05 α level (Dixon, 1965).

[7] = system: Cav2.2 null mice and wild-type littermates; settings: 2 g/kg ethanol i.p., Cav2.2 null vs wild-type
Protocol: Mice were trained to remain for 180 s on a rotarod apparatus (Ugo Basile Biological Research, Varese, Italy) rotating at a fixed rate of 20 rpm. The first test session was carried out the following day. During a test session, each mouse was placed on the rotarod and the time taken for the animal to fall off the rod was recorded. Mice were then injected intraperitoneally with ethanol and re-tested every 15 min for 1 h. […] Three further days later, the mice were trained to remain on an accelerating (4-40 rpm) rotarod for 300s.

[8] = molecular target: N-type calcium channel (Rattus norvegicus, UniProt Q02294); settings: PC12 cells, 25-200 mM ethanol for 2-8 days; cited from earlier work
Sequence of N-type calcium channel (Q02294 whole entry, looked up): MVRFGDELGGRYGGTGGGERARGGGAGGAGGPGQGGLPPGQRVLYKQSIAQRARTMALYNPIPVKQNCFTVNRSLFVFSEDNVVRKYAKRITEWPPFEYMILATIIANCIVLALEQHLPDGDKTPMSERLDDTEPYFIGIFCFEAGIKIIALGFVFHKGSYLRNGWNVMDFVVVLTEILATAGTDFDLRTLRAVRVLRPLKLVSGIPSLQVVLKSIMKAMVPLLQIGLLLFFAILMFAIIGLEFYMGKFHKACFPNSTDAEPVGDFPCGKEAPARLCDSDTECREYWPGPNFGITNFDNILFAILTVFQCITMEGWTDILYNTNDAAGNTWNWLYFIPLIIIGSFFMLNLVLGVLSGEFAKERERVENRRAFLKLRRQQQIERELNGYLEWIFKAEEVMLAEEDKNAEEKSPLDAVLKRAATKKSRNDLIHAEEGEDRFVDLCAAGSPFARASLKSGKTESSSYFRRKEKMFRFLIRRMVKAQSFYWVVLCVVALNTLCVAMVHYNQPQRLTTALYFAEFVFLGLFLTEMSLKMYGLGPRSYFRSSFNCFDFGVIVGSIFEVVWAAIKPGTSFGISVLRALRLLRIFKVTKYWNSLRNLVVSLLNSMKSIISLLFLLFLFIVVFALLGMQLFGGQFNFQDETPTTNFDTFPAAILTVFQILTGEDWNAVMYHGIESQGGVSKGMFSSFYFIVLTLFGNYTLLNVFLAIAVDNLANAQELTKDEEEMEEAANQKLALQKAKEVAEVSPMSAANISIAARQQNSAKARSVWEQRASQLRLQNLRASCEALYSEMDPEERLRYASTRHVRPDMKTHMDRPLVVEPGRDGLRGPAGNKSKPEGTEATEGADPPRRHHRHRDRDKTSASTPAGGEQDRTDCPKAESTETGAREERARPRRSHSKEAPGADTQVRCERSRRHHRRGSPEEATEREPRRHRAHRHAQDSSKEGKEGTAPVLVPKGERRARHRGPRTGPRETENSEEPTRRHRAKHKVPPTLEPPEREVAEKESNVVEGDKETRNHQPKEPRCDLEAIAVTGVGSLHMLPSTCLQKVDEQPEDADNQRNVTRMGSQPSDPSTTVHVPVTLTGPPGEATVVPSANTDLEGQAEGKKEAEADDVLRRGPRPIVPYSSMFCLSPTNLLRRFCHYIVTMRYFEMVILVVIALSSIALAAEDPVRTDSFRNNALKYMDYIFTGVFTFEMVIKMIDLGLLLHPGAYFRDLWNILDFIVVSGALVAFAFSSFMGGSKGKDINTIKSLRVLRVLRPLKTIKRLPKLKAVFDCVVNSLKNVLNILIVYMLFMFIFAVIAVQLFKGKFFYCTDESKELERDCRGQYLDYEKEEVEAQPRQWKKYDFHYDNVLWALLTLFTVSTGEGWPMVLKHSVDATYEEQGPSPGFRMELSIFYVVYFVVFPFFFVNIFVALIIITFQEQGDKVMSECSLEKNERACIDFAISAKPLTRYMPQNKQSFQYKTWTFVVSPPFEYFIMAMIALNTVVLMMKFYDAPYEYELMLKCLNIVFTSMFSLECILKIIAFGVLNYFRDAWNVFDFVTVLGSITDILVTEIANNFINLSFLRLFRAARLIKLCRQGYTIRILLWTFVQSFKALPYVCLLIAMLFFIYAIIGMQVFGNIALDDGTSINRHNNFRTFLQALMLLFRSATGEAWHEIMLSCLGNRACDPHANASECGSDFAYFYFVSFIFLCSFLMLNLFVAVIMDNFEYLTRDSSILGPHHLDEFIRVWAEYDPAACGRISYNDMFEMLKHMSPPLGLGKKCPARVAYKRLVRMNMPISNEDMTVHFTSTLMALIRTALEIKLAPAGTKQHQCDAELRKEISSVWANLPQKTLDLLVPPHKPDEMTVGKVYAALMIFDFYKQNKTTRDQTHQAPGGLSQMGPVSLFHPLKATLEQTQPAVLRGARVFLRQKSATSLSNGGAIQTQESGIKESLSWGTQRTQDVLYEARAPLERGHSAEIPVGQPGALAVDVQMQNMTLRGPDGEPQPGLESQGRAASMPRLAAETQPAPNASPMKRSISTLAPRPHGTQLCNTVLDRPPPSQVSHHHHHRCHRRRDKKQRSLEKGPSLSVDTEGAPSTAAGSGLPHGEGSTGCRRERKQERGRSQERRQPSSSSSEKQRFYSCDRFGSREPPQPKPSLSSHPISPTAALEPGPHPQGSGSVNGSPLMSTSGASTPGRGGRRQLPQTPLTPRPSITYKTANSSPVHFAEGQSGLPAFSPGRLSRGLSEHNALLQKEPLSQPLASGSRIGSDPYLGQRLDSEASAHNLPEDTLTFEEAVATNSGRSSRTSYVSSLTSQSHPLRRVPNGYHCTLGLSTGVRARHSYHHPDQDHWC

SMILES: CCO [ethanol]
- handling-induced convulsions during alcohol withdrawal [1]: increased handling-induced convulsions
- conditioned taste aversion to 1.2% NaCl ([2]; 2 g/kg ethanol injection, both genotypes): both genotypes rapidly developed conditioned taste aversion
- magnitude of conditioned taste aversion ([2]; 2 g/kg ethanol, Cav2.2 null vs wild-type): reduced
- conditioned place preference ([3]; Cav2.2 null mice, 2 g/kg ethanol): completely absent
- conditioned place preference ([3]; both genotypes, 1.2 g/kg and 2.8 g/kg ethanol): Neither genotype showed place preference or aversion
- conditioned place preference ([3]; inbred 129/SvJae background, Cav2.2 null): no conditioned place preference
- conditioned place preference ([3]; inbred 129/SvJae background, wild-type, ethanol 1.5 g/kg): significant conditioned place preference
- conditioned place preference ([3]; wild-type mice, 2 g/kg ethanol): robust place preference
- clearance of ethanol from the blood [4]: no difference between the genotypes
- alcohol consumption, Cav2.2 null mice less than wild-type littermates [5]: about 30%
- blood ethanol concentration at regaining righting reflex, Cav2.2 null vs wild-type ([6]; 3.6 g/kg ethanol i.p.): higher blood ethanol concentration
- decrease in duration of ethanol-induced LORR, Cav2.2 null vs wild-type ([6]; 3.6 g/kg ethanol i.p.): 70%
- increase in threshold ethanol dose that induces LORR, Cav2.2 null vs wild-type ([6]; 10% v/v ethanol i.p., up-and-down method): 16%
- duration of ethanol-induced LORR ([6]; inbred 129/SvJae background, Cav2.2 null vs wild-type): decreased duration
- latency to fall, accelerating (4-40 rpm) rotarod [7]: shorter latency to fall
- binding sites for 125I-ω-conotoxin GVIA [8]: reversible time- and concentration-dependent increase
